The results in this text go back to patent US20060135773A1, “Trisubstituted nitrogen modulators of tyrosine phosphatases” (priority 2004, published 2006).

One may read the IC50 as the concentration that gives 50% inhibition.

This test has as its target T1, PTP-1B (Homo sapiens, UniProt P18031).
T1 construct: PTP-1B (purified, 1 mg/mL) as a 1:250 dilution
T1 sequence (P18031 1-321 limits assumed): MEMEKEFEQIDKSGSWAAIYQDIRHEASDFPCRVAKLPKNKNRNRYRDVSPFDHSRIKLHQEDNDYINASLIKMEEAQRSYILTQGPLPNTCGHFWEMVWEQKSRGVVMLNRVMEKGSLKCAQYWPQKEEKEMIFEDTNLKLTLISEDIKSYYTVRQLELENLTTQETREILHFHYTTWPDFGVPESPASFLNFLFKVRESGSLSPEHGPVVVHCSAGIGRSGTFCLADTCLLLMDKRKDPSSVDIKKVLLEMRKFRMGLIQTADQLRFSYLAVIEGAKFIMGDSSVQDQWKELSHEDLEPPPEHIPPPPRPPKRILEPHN
The test is described as follows: pNPP tyrosine phosphatase inhibition assay, PTP-1B. The conditions noted are these: pNPP assay, PTP-1B; read-out: Activity Class (IC50 ranges). It is filed as biochemical. On the procedure: The compounds provided herein are evaluated for biological activity as inhibitors of PTP-1B using, for example, a pNPP assay can be used to screen compounds for tyrosine phosphatase inhibitory activity as described in the Examples.
A 5× stock of pNPP (p-nitrophenol phosphate) substrate is prepared as 50 mM pNPP in assay buffer. Various tyrosine phosphatase solutions can be prepared as follows: • PTP-1B (purified, 1 mg/mL) as a 1:250 dilution (to a final concentration of 4:g/mL); • TC-PTP (NEB, 1000 units in 100:L) as a 1:50 dilution (to a final concentration of 2U/10:L (4:g/mL)); • CD45 (Calbiochem, 20:g, 400 units in 100:L) as a 1:50 dilution (to a final concentration of 0.8U/10:L (4:g/mL)); • LAR (NEB, 1000 units in 200:L) as a 1:75 dilution (to a final concentration of 0.7U/10:L (4:g/mL)); and • PTP-β (UBI, #14-350, 10,000 units, 40:g/571:L) as a 1:17.5 dilution (to a final concentration of 10U/10:L (4:g/mL));
The compound to be tested is prepared as 1:16.7 and 1:50 dilutions from stock in a total volume of […] DMSO to give final concentrations of 626 and 200:M. The reaction mixtures are prepared in a 96-well microtiter plate (on ice) as 55:L assay buffer, 5:L of the diluted compound (to a final concentration of 31.3 and 10:M), 20:L of the pNPP substrate solution (to a final concentration of 10 mM) and 20:L PTPase in assay buffer. The reactants are mixed well, the plate placed in a water bath at 30° C. and incubated for 10 minutes. The reaction is then terminated by adding 100:L of 2M K2CO3 per well, and the absorbance is measured at 405 nm by conventional means.
Unless otherwise indicated, this assay was used to determine activity for the selected compounds whose activity is provided in Table 1.

For the compound `O=P(O)(O)C(F)(F)c1ccc(CN(Cc2ccc(C(F)(F)P(=O)(O)O)cc2)S(=O)(=O)c2cccc(Cl)c2Cl)cc1` [Compound 91, {[4-({(2,3-Dichloro-benzenesulfonyl)-[4-(difluoro-phosphono-methyl)-benzyl]-amino}-methyl)-phenyl]-difluoro-methyl}-phosphonic acid], the half-maximal inhibitory concentration (IC50) was 2500 to 25000 nM.

With `COC(=O)c1ccccc1S(=O)(=O)N(Cc1ccc(C(F)(F)P(=O)(O)O)cc1)Cc1ccc(C(F)(F)P(=O)(O)O)cc1` [Compound 92, 2-{Bis-[4-(difluoro-phosphono-methyl)-benzyl]-sulfamoyl}-benzoic acid methyl ester], the IC50 lay within 2500 to 25000 nM.

For the compound `O=P(O)(O)C(F)(F)c1ccc(CN(Cc2ccc(C(F)(F)P(=O)(O)O)cc2)S(=O)(=O)c2ccccc2-c2ccccc2)cc1` [Compound 93, {[4-({(Biphenyl-2-sulfonyl)-[4-(difluoro-phosphono-methyl)-benzyl]-amino}-methyl)-phenyl]-difluoro-methyl}-phosphonic acid], the 50% inhibitory concentration (IC50) lay within 250 to 499 nM.

Regarding `O=C(O)c1ccc(CN(Cc2ccc(Cl)c(Cl)c2)S(=O)(=O)c2ccccc2Cl)cc1Br` [Compound 94, 2-Bromo-4-{[(2-chloro-benzenesulfonyl)-(3,4-dichloro-benzyl)-amino]-methyl}-benzoic acid], the IC50 was more than 25000 nM.

As to `O=C(NS(=O)(=O)C(F)(F)F)c1ccc(CN(Cc2ccc(Cl)c(Cl)c2)S(=O)(=O)c2ccccc2Cl)cc1Br` [Compound 95, N-(3-Bromo-4-trifluoromethanesulfonylaminocarbonyl-benzyl)-2-chloro-N-(3,4-dichloro-benzyl)-benzenesulfonamide], the IC50 was more than 25000 nM.

For the compound `N#Cc1ccccc1S(=O)(=O)N(Cc1ccc(Cl)c(Cl)c1)Cc1ccc(C(F)(F)P(=O)(O)O)c(Br)c1` [Compound 97, [(2-Bromo-4-{[(3,4-dichloro-benzyl)-(2-cyanobenzenesulfonyl)-amino]-methyl}-phenyl)-difluoro-methyl]-phosphonic acid], the IC50 was 250 to 499 nM.

With `O=P(O)(O)C(F)(F)c1ccc(CN(Cc2ccc(Cl)c(Cl)c2)S(=O)(=O)c2ccccc2OC(F)(F)F)cc1Br` [Compound 98, [(2-Bromo-4-{[(3,4-dichloro-benzyl)-(2-trifluoromethoxy-benzenesulfonyl)-amino]-methyl}-phenyl)-difluoro-methyl]-phosphonic acid], the half-inhibitory concentration (IC50) lay within 250 to 499 nM.

As to `O=P(O)(O)C(F)(F)c1ccc(CN(Cc2ccc(C(F)(F)P(=O)(O)O)c(Br)c2)S(=O)(=O)c2ccc3ccccc3c2)cc1Br` [Compound 99, [(2-Bromo-4-{[[3-bromo-4-(difluoro-phosphono-methyl)-benzyl]-(naphthalene-2-sulfonyl)-amino]-methyl}-phenyl)-difluoro-methyl]-phosphonic acid], the IC50 is less than 99 nM.

Regarding `O=P(O)(O)C(F)(F)c1ccc(CN(Cc2ccc(Cl)c(Cl)c2)S(=O)(=O)c2ccccn2)cc1Br` [Compound 100, [(2-Bromo-4-{[(3,4-dichloro-benzyl)-(pyridine-2-sulfonyl)-amino]-methyl}-phenyl)-difluoro-methyl]-phosphonic acid], the IC50 lay in the range of 250 to 499 nM.

Turning to `COc1ccccc1S(=O)(=O)N(Cc1ccc(Cl)c(Cl)c1)Cc1ccc(C(F)(F)P(=O)(O)O)c(Br)c1` [Compound 101, [(2-Bromo-4-{[(3,4-dichloro-benzyl)-(2-methoxy-benzenesulfonyl)-amino]-methyl}-phenyl)-difluoro-methyl]-phosphonic acid], the IC50 lay in the range of 100 to 249 nM.

For `CS(=O)(=O)c1ccc(CN(Cc2ccc(C(F)(F)P(=O)(O)O)c(Br)c2)S(=O)(=O)c2ccccc2Cl)cc1` [Compound 102, [(2-Bromo-4-{[(2-chloro-benzenesulfonyl)-(4-methanesulfonyl-benzyl)-amino]-methyl}-phenyl)-difluoro-methyl]-phosphonic acid], the IC50 fell in the range of 100 to 249 nM.

For the compound `N#Cc1ccc(CN(Cc2ccc(C(F)(F)P(=O)(O)O)c(Br)c2)S(=O)(=O)c2ccccc2Cl)cc1` [Compound 103, [(2-Bromo-4-{[(4-cyano-benzyl)-(2-chlorobenzenesulfonyl)-amino]-methyl}-phenyl)-difluoro-methyl]-phosphonic acid], the IC50 fell in the range of 100 to 249 nM.

In the case of `COC(=O)c1ccc(CN(Cc2ccc(C(F)(F)P(=O)(O)O)c(Br)c2)S(=O)(=O)c2ccccc2Cl)cc1` [Compound 104, 4-{[[3-Bromo-4-(difluoro-phosphono-methyl)-benzyl]-(2-chloro-benzenesulfonyl)-amino]-methyl}-benzoic acid methyl ester], the IC50 was 100 to 249 nM.

As to `COc1ccccc1S(=O)(=O)N(Cc1ccc(C#N)cc1)Cc1ccc(C(F)(F)P(=O)(O)O)c(Br)c1` [Compound 105, [(2-Bromo-4-{[(4-cyano-benzyl)-(2-methoxybenzenesulfonyl)-amino]-methyl}-phenyl)-difluoro-methyl]-phosphonic acid], the IC50 lay within 100 to 249 nM.

In the case of `CCNc1ccc(S(=O)(=O)C(F)(F)F)cc1NC(=O)c1ccc(C)c(S(=O)(=O)N2CCCCC2)c1` [Compound 106, N-(2-Ethylamino-5-trifluoromethanesulfonyl-phenyl)-4-methyl-3-(piperidine-1-sulfonyl)-benzamide], the half-inhibitory concentration (IC50) is more than 25000 nM.

Turning to `O=C(O)c1ccc(CN(Cc2ccc(C(F)(F)P(=O)(O)O)c(Br)c2)S(=O)(=O)c2ccccc2Cl)cc1` [Compound 107, 4-{[[3-Bromo-4-(difluoro-phosphono-methyl)-benzyl]-(2-chloro-benzenesulfonyl)-amino]-methyl}-benzoic acid], the IC50 is less than 99 nM.

For the compound `COc1ccccc1S(=O)(=O)N(Cc1ccc(S(C)(=O)=O)cc1)Cc1ccc(C(F)(F)P(=O)(O)O)c(Br)c1` [Compound 108, [(2-Bromo-4-{[(4-methanesulfonyl-benzyl)-(2-methoxy-benzenesulfonyl)-amino]-methyl}-phenyl)-difluoro-methyl]-phosphonic acid], the half-maximal inhibitory concentration (IC50) lay in the range of 250 to 499 nM.

In the case of `O=P(O)(O)C(F)(F)c1ccc(CN(Cc2ccc(Cl)c(Cl)c2)S(=O)(=O)c2ccc(Oc3ccccc3)cc2)cc1Br` [Compound 109, [(2-Bromo-4-{[(3,4-dichloro-benzyl)-(4-phenoxy-benzenesulfonyl)-amino]-methyl}-phenyl)-difluoro-methyl]-phosphonic acid], the IC50 was in the range of 250 to 499 nM.

As to `COc1ccccc1S(=O)(=O)N(Cc1ccc(-c2nn[nH]n2)cc1)Cc1ccc(-c2nn[nH]n2)cc1` [Compound 110, 2-Methoxy-N,N-bis-[4-(2H-tetrazol-5-yl)-benzyl]-benzenesulfonamide], the IC50 was more than 25000 nM.

On to `COc1ccc(S(=O)(=O)N(Cc2ccc(C(=O)C(=O)O)cc2)Cc2ccc(S(C)(=O)=O)cc2)c(OC)c1` [Compound 111, (4-{[(2,4-Dimethoxy-benzenesulfonyl)-(4-methanesulfonyl-benzyl)-amino]-methyl}-phenyl)-oxo-acetic acid], for which the IC50 was more than 25000 nM.

Take `COc1ccccc1S(=O)(=O)N(Cc1ccc(C#N)cc1)Cc1ccc(N(S(=O)(=O)C(F)(F)F)S(=O)(=O)C(F)(F)F)cc1` [Compound 112, N-(4-[bis(N-trifluoro-methanesulfonyl)amino]benzyl)-N-(4-cyanobenzyl)-(2-methoxy)benzenesulfonamide]: the IC50 was more than 25000 nM.
